Measured values reported in PMC10189894 (Chemical Science, 2023).

Test: Autohydrolytic cascade reaction
Assay type: physicochemical
Conditions: EDTA at 10–200 μM; Fig. S9E

With `O=C(O)CN(CCN(CC(=O)O)CC(=O)O)CC(=O)O` [EDTA] the “effect on the ACR” value was “inhibitory effect”.
